Where a SMILES comes first, the peptide text is derived from it. [ ]: non-standard residue; d: D form. The star is where a group is joined. Nle = CCCC[C@H](N)C(=O)O; Cbz = O=C(OCc1ccccc1)*; CH2Cl = ClC*
What was measured:
[1] = biological target: Calpain I (Rattus norvegicus, UniProt P97571); assay: Kapp/[I] progress curve method, rat Calpain I (Table 1C); assay type: biochemical; conditions: Suc-leu-tyr-amidomethylcoumarin
Experimental: (§1) The Halo-Ketone Peptides, like the substituted isocoumarins, are irreversible inhibitors of Calpain. We determined the Kapp /[I] values for various members of this class of compounds against Calpains I and II. For comparison, we also determined these values against the additional thiol proteases Papain and Cathepsin B for at least one Halo-Ketone Peptide.
(§2) We assayed Calpain I and II using Suc-leu-tyr-amidomethylcoumarin. Papain was assayed using benzoyl-arg-4-nitroanilide, and Cathepsin B (bovine) was assayed using CBZ-lys-4-nitrophenyl ester. We followed the progress curve method of Tian and Tsou, Biochemistry, 21:1028-1032 (1982), the disclosure of which is hereby incorporated by reference, to derive kinetic data. Briefly, this method makes use of the equation: [formula] where [P.infin. ] represents the concentration of product formed at a time approaching infinity, A is the Kapp in the presence of substrate (S), K is the Michaelis constant and [Y] is the concentration of the inhibitor. Since [S] and [Y] are known and V and K can be determined, Kapp can be readily determined.

[2] = test system: Calpain in crude brain extracts; assay: Ca2+-stimulated spectrin proteolysis in crude brain extracts (Example 2); assay type: biochemical; conditions: for inhibition of spectrin proteolysis in crude brain extracts: 100 μM
Summary of the method: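 Brain tissue was homogenized in 10 mM Tris pH 7.4, 0.32 M sucrose, 1 mM EGTA and 1 mM DTT, and nuclei and debris were removed. Calpain activity was scored as Ca^2+-stimulated proteolysis of endogenous spectrin.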

[3] = test system: Calpain within platelets; assay: Platelet membrane permeation assay, spectrin proteolysis (Examples 4A, 4B); assay type: cell-based, rat; conditions: 100 μM, A23187 1 μM
Summary of the method: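 Rat (Sprague-Dawley) platelets at 10^7 cells/ml in HEPES buffer pH 7.4, preincubated 5 min with inhibitor, then 5 min with 1 μM A23187 to activate calpain. Spectrin proteolysis assessed by SDS-PAGE and anti-spectrin immunoblot, quantified by densitometry.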

[4] = test system: Calpain II; assay: Kapp/[I] progress curve method, Calpain II (Table 1C); assay type: biochemical; set-up: unit not given here; conditions: Rabbit Calpain II, Suc-leu-tyr-amidomethylcoumarin
Experimental: as §1, §2

[5] = test system: hippocampal slices; assay: Hippocampal slice survival after 10 min anoxia (Example 7A); assay type: cell-based, rat
Experimental: Hippocampal slices (400 um) were prepared from Sprague Dawley rats (6 to 7 weeks) and maintained in an interface chamber at 35° C. using conventional techniques, i.e., the lower surface of the slice received a constant perfusion (0.5 ml/min) of ACSF, while the upper surface was exposed to a moist atmosphere of O2 :CO2 (95%:5%) exchanged at a rate of 2 L/min. The ACSF medium contains (in mM): NaCl (124), KCl (3), KHPO4 (2.5), CaCl (3.4), NaHCO3 (26) and D-Glucose (10). Field excitatory post-synaptic responses were recorded from stratum radiatum of CAlb in response to stimulation of Schaffer-commissural fibers in CAla or CAlc. The depth of the recording electrode was optimized and evoked responses were collected at a rate of one evoked response every 30 seconds.
For the initial screening procedure, 14 to 16 slices are harvested from the hippocampus of a single rat and placed in a common ACSF bath. Each slice is tested in sequence to determine the magnitude of its pre-anoxic evoked response. Five stimulation pulses (each 0.1 ms (millisecond) in duration) were presented over a 15 second interval. The largest evoked response was noted and recorded for each slice.
After the one hour drug incubation period, the oxygen-enriched atmosphere of the chamber was made anoxic by substituting nitrogen for oxygen (N2 =95%; CO^2 =5%). The slices were retained in this anoxic environment for 10 minutes, following which the oxygen-enriched atmosphere (O^2 =95%; CO2 =5%) was reestablished.
The slices were given the opportunity to recover for 30 minutes following reoxygenation whereupon each was stimulated and the maximum evoked potential determined, as described above during the pre-anoxia period. Those slices which, after anoxia, produced a maximum evoked potential of greater than 50% of that observed prior to anoxia were defined as surviving slices.

[6] = test system: rats injected with kainic acid; assay: Kainate-induced behavioral symptoms and convulsions (Example 8A); assay type: in vivo, rat; conditions: 12 mg/kg kainic acid i.p., 4.6 mg calpain inhibitor in DMSO i.p., observed six hours
Experimental: Rats (male Sprague-Dawley, 200±5 gms) were injected intraperitoneally with 12 mg/kg kainic acid in saline vehicle and ether 2001 μl DMSO (dimethylsulfoxide) or 4.6 mg calpain inhibitor dissolved in the same volume of DMSO.

[7] = test system: hippocampal slices; assay: Hippocampal slice evoked potential recovery after anoxia (Example 7B); assay type: cell-based, rat
Experimental: As in Example 7A, hippocampal slices (400 μm) were prepared from Sprague Dawley rats (6-7 weeks) and maintained in an interface chamber at 35° C. using conventional techniques, i.e. the lower surface of the slice received a constant perfusion (0.5 ml/min) of an artificial cerebrospinal fluid (ACSF), while the upper surface was exposed to a moist atmosphere of O2 :CO2 (95%:5%) exchanged at a rate of 2 L/min. The ACSF medium contains (in mM): NaCl (124), KCl (3), KHPO4 (1.25), MgSO4 (2.5), CaCl2 (3.4), NaHCO3 (26) and D-Glucose (10). Field excitatory post-synaptic responses were recorded from stratum radiatum of CA1b in response to stimulation of Schaffer-commissural fibers in CA1a or CA1c. The depth of the recording electrode was optimized and evoked responses were collected at a rate of one evoked response every 30 seconds.
After establishing a stable baseline of evoked responses (approximately 10 minutes), ACSF containing Calpain Inhibitor was washed into the chamber and slices were incubated for a period of one hour. After incubation, evoked responses were again recorded and the change in the amplitude of the responses from baseline levels was noted. No effect of the inhibitors tested on baseline evoked responses was observed.
For anoxia experiments, incubation in the drug-containing medium was followed by replacement of the O2 :CO2 (95%:5%) atmosphere with N2 :CO2 (95%:5%). Slices were exposed to this anoxic environment until disappearance of the pre-synaptic fiber volley and for two minutes (severe anoxia) longer (total time in anoxic environment approximately 7-8 minutes in control case). Effects of Calpain Inhibitors on the functional recovery of the slices after the anoxic episode were then measured. Recovery of the evoked potential (EPSP) slope and amplitude by the drug treated slices can be compared to control slices to determine the relative efficacy of various Calpain Inhibitors.

[8] = test system: N18-RE-105 cells; assay: Glutamate-induced cell death, MTT conversion (Example 5); assay type: cell-based; conditions: 5 mM glutamate, inhibitor 3 μg/ml, 19 hours
Experimental: Stock cultures of N18-RE-105 cells were maintained in Dulbecco's modified Eagle's medium (DMEM) containing 10% fetal bovine serum (FBS) and supplemented with hypoxanthine, aminopterin and thymidine (HAT). Subconfluent cultures were split and plated into 96-well plates. Twenty-four hours after plating the cells were exposed to fresh media containing glutamate and various concentrations of Calpain inhibitors. Control cells were not treated with glutamate. Conversion of MTT was measured 19 hours later as described. Nineteen hours after the onset of exposure, cell viability was quantitated by measuring the extent to which the cells convert 3(4,5-dimethylthiazol-2-yl)-2-5-diphenyltetrazolium bromide (MTT) to a blue formazan product, which occurs in the mitochondria of living but not dead cells (Pauwels et al., 1988). A higher absorbance is indicative of greater cell viability.

[9] = biological target: T1, Calpain I (Homo sapiens, UniProt P07384); assay: Kapp/[I] progress curve method, human Calpain I (Table 1C); assay type: biochemical; conditions: Suc-leu-tyr-amidomethylcoumarin
T1 sequence (P07384 1-714): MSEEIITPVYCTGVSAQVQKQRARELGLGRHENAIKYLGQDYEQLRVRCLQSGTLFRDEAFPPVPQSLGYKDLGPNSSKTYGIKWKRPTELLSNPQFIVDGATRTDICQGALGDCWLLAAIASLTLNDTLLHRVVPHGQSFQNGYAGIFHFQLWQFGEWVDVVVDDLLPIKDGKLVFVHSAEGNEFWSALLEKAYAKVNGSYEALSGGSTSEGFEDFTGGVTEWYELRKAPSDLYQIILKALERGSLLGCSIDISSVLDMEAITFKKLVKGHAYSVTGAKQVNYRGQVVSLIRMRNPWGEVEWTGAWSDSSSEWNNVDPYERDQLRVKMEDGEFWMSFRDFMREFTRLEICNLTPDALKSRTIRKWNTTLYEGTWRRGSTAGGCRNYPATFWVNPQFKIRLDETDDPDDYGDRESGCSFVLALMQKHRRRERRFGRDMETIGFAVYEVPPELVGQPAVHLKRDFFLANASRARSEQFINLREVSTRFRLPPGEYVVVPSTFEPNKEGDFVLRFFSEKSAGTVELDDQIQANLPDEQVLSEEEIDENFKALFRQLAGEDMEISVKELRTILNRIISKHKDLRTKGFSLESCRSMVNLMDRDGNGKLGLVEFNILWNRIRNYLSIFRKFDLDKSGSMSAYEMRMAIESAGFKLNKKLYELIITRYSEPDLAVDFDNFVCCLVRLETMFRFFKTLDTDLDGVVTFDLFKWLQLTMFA
T1 sequence (P04632 1-268 partner): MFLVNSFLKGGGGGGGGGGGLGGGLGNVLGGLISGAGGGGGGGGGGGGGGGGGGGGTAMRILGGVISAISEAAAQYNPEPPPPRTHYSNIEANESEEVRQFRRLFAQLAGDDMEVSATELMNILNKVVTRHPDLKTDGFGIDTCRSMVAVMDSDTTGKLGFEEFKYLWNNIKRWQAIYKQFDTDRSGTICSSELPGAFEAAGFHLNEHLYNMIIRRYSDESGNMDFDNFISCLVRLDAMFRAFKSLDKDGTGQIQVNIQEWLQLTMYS
Experimental: as §1, §2

Sequence of Calpain I (Rattus norvegicus, UniProt P97571) (P97571 whole entry): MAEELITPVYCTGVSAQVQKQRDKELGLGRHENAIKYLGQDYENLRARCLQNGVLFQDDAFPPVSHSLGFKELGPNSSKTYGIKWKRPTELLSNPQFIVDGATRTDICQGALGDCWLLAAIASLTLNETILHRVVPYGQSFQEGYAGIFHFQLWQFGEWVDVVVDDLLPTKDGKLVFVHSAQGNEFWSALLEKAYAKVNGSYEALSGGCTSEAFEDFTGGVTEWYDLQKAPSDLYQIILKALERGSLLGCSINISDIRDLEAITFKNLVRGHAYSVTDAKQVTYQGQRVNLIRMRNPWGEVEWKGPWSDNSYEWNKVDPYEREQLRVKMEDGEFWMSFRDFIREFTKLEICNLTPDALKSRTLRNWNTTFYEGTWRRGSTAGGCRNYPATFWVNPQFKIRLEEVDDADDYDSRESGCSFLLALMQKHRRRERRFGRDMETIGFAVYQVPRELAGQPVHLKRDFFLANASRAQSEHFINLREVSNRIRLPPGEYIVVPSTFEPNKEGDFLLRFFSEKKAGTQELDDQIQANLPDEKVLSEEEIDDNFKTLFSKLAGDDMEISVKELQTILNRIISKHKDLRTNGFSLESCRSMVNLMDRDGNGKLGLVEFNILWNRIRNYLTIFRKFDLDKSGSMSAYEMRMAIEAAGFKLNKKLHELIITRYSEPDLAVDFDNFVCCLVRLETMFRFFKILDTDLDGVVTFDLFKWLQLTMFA
Sequence of Calpain I (Rattus norvegicus, UniProt P97571) (Q64537 whole entry partner): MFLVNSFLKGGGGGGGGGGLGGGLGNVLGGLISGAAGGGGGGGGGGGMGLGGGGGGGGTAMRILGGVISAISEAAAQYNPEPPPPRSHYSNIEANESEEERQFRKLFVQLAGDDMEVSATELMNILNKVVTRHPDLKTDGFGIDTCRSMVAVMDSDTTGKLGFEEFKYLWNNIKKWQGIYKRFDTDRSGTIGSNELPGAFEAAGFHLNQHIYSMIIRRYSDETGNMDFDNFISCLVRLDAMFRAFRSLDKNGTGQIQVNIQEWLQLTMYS

Row | SMILES | Kapp/[I] CI [1] | inhibition of spectrin proteolysis in crude brain extracts [2] | inhibition of Calpain within platelets [3] | Kapp/[I] CII [4] | inhibition in the system of Example 2 ([2]; concentration not given) | protection of slices from anoxia (FIG. 3) ([5]; 10 minutes anoxic atmosphere) | Survival of slices after ten minutes anoxia ([5]; Dose 200 μM, incubation 2 hours) [%] | kainate-induced behavioral symptoms and convulsions (FIG. 7) [6] | % Recovery of synaptic transmission after anoxia ([7]; Concentration 200, ten minutes anoxia) [%] | period of anoxia required to produce fiber volley disappearance (FIG. 6) ([7]; hippocampal slices) | blue formazan product relative to control without glutamate [8] | Kapp/[I] CI [9]
1 | CC(=O)N[C@@H](CC(C)C)C(=O)N[C@@H](Cc1ccccc1)C(=O)CCl [Ac-Leu-Phe-CH2 Cl] (HELM PEPTIDE1{[ac].L.F.[ClC[*:1]]}$$$$V2.0) | 25900 | significant inhibition | significant inhibition | 33400 |  |  |  |  |  |  |  | 
2 | CCCC[C@@H](C=O)NC(=O)[C@H](CC(C)C)NC(=O)[C@H](CC(C)C)NC(C)=O [CI1, Ac-Leu-Leu-Nle-H, reference compound] (Ac-Leu-Leu-[Nle]-aldehyde) |  |  |  |  | showed inhibition | protected from the effects of anoxia | 53 | incidence and severity of convulsions was reduced | 35 | does not significantly lengthen the period of anoxia required to suppress electrical activity | protect N18-RE-105 cells against glutamate toxicity | 
3 | CC(C)C[C@H](NC(=O)CNC(=O)OCc1ccccc1)C(=O)N[C@@H](Cc1ccccc1)C(=O)CCl [Z-Gly-Leu-Phe-CH2 Cl, reference compound] (HELM PEPTIDE1{[O=C(OCc1ccccc1)[*:2]].G.L.F.[ClC[*:1]]}$$$$V2.0) | 284000 | significant inhibition | significant inhibition | 946000 |  |  |  |  |  |  |  | 
4 | CC(C)CC(NC(=O)OCc1ccccc1)C(=O)NC(Cc1ccccc1)C(=O)CCl (stereo not drawn) [Z-Leu-Phe-CH2 Cl] (Cbz-Leu-Phe-CH2Cl; configuration not given here) |  | significant inhibition | significant inhibition | 585000 |  |  |  |  |  |  |  | 225000
